Measurements as given in the supplement of paper PMC10307832.

How the values were obtained:
Assay in all cases: relative viability (nuclei count vs DMSO), 5 days (fraction); higher = more cells survive
[1] = compound: C1=CC=C2C(=C1)N=C(S2)C(C#N)C3=NC(=NC=C3)NCCC4=CN=CC=C4 + C[C@]1(O)C[C@@H](c2nc(-c3ccc4ccc(-c5ccccc5)nc4c3)c3c(N)nccn32)C1 [Linsitinib] (partner 1 µM)
Summary of the method: (§1)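 Lung cancer cell lines were seeded in 1536-well plates and dosed by pin tool the next day, with either a single drug or a fixed anchor-drug dose combined with five library-drug doses (not always all listed) spaced in √10 steps. Five days later, one step fixed the cells and stained their nuclei (final 0.05% Triton X-100, 1% formaldehyde, 1 ug/ml Hoechst), and nuclei were counted on 4× images. Relative viability is the nuclei count in treated wells divided by the count in vehicle wells, and each value is the median of duplicate plates.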

[2] = compound: COc1cc(N2CCC(N3CCN(C)CC3)CC2)ccc1Nc1ncc(Cl)c(Nc2ccccc2S(=O)(=O)C(C)C)n1 [NVP-TAE684] + Nc1ncn([C@H]2C[C@H](O)[C@@H](CO)O2)c(=O)n1 [Decitabine] (partner 2 µM)
Summary of the method: as §1

[3] = compound: COc1cc2/c(=N/c3ccc(Br)cc3F)nc[nH]c2cc1OCC1CCN(C)CC1 [Vandetanib] + CC1(C)CCC(c2ccc(Cl)cc2)=C(CN2CCN(c3ccc(C(=O)NS(=O)(=O)c4ccc(N[C@H](CCN5CCOCC5)CSc5ccccc5)c(S(=O)(=O)C(F)(F)F)c4)cc3)CC2)C1 [Navitoclax] (partner 0.5 µM)
Summary of the method: as §1

[4] = compound: C1=CC=C2C(=C1)N=C(S2)C(C#N)C3=NC(=NC=C3)NCCC4=CN=CC=C4 + Cc1nc(Nc2ncc(C(=O)Nc3c(C)cccc3Cl)s2)cc(N2CCN(CCO)CC2)n1 [Dasatinib] (partner 0.075 µM)
Summary of the method: as §1

Cell Line | relative viability ([1]; first compound 0.005 µM) | relative viability ([1]; first compound 0.01581 µM) | relative viability ([1]; first compound 0.05 µM) | relative viability ([1]; first compound 0.1581 µM) | relative viability ([1]; first compound 0.5 µM) | relative viability ([2]; first compound 0.2 µM) | relative viability ([2]; first compound 0.6325 µM) | relative viability ([2]; first compound 2 µM) | relative viability ([3]; first compound 0.02 µM) | relative viability ([3]; first compound 0.06325 µM) | relative viability ([3]; first compound 0.2 µM) | relative viability ([3]; first compound 0.6325 µM) | relative viability ([3]; first compound 2 µM) | relative viability ([4]; first compound 0.005 µM) | relative viability ([4]; first compound 0.01581 µM) | relative viability ([4]; first compound 0.05 µM) | relative viability ([4]; first compound 0.1581 µM) | relative viability ([4]; first compound 0.5 µM)
HCC-44 | 0.655 | 0.724 | 0.696 | 0.666 | 0.65 | 0.946 | 0.955 | 0.876 | 1.05 | 1.02 | 0.93 | 0.976 | 0.947 |  |  |  |  | 
EKVX | 0.83 | 1.17 | 1.06 | 1.02 | 0.829 | 0.317 | 0.354 | 0.325 | 0.934 | 0.869 | 0.882 | 0.753 | 0.806 | 0.464 | 0.473 | 0.523 | 0.473 | 0.547
NCI-H23 |  | 0.685 | 0.583 | 0.85 | 0.533 | 0.31 | 0.322 | 0.241 | 0.782 | 0.8 | 0.769 | 0.914 | 0.688 | 0.645 | 0.836 | 1.02 | 0.974 | 0.993
NCI-H2347 | 0.899 | 0.854 | 0.954 | 0.953 | 0.966 | 0.602 | 0.679 | 0.571 | 0.878 | 0.453 | 0.834 | 0.945 | 0.708 | 0.359 | 0.814 | 0.261 | 0.347 | 0.307
SK-LU-1 |  | 1.08 | 1.01 | 1.47 | 1.07 | 0.58 | 0.658 | 0.602 | 0.954 | 0.571 | 0.794 | 0.953 | 0.789 | 0.174 | 0.184 | 0.189 | 0.188 | 0.199
A549 | 0.476 | 0.684 | 0.549 | 0.661 | 0.595 |  | 0.248 | 0.286 | 1.12 | 1.23 | 1.12 | 1.08 | 1.22 |  |  |  |  | 
LU99A | 0.517 | 0.517 | 0.553 | 0.611 | 0.553 | 0.97 |  | 0.496 | 0.794 | 0.73 | 0.734 | 0.679 | 0.761 | 0.532 | 0.662 | 0.52 | 0.855 | 0.767
NCI-H596 | 0.921 | 1.12 | 1.05 | 1.15 | 0.951 | 1 | 1.08 | 0.989 | 0.942 | 0.976 | 1.05 | 0.94 | 0.795 | 0.559 | 0.559 | 0.534 | 0.526 | 0.619
A-427 | 1.05 | 1.12 | 1.11 | 1.17 | 1.13 | 0.58 | 0.53 | 0.44 | 0.931 | 0.952 | 0.992 | 0.935 | 0.874 | 0.66 | 0.743 | 0.764 | 0.688 | 0.822
SW 900 |  |  |  |  |  | 0.433 | 0.444 | 0.421 |  |  |  |  |  | 0.625 | 0.53 | 0.564 | 0.844 | 0.543
COR-L 105 | 0.956 | 1.04 | 1.11 | 1.11 | 0.992 | 0.681 | 0.701 | 0.429 | 0.833 | 0.888 | 0.826 | 0.804 | 0.353 | 0.344 | 0.297 | 0.34 | 0.303 | 0.29
LOU-NH91 | 0.919 | 0.931 | 0.834 | 0.973 | 0.935 | 0.801 | 0.782 | 0.645 | 0.709 | 0.561 | 0.553 | 0.535 | 0.445 | 0.501 | 0.567 | 0.509 | 0.58 | 0.471
COR-L23 | 0.483 | 1.14 | 1.01 | 1.06 | 0.682 | 0.415 | 0.339 | 0.252 | 0.95 | 0.915 | 0.114 | 1.07 | 0.954 | 0.427 | 0.516 | 0.499 | 0.581 | 0.489
HCC-15 | 0.842 | 0.911 | 0.926 | 0.888 | 0.882 | 0.582 | 0.524 | 0.484 | 0.685 | 0.702 | 0.682 | 0.756 | 0.649 | 0.569 | 0.578 | 0.564 | 0.703 | 0.508
LCLC-103H | 1.03 | 1.08 | 1.14 | 1.09 | 1.06 | 0.7 | 0.69 | 0.683 |  |  |  |  |  | 0.415 | 0.456 | 0.473 | 0.507 | 0.312
HARA | 0.731 | 0.937 | 0.934 | 1.12 | 0.788 | 0.664 | 0.55 | 0.234 | 1.1 | 0.996 | 1.13 | 1.07 | 1.15 | 0.355 | 0.281 | 0.246 | 0.235 | 0.372
BEN | 0.6 | 0.953 | 0.885 | 0.973 | 0.74 |  | 0.622 | 0.643 | 0.0787 | 0.0663 | 0.063 | 0.0857 | 0.0698 | 0.229 | 0.323 | 0.326 | 0.479 | 0.425
LC-2-ad | 0.886 | 0.85 | 0.844 | 0.878 | 0.82 | 0.754 | 0.78 | 0.606 | 0.44 | 0.482 | 0.548 | 0.403 | 0.243 | 0.542 | 0.398 | 0.55 | 0.525 | 0.396
NCI-H1299 | 0.92 | 0.99 | 0.744 | 1.07 | 0.912 |  |  |  | 1 | 1.01 | 1.05 | 1.08 | 1.03 |  |  |  |  | 
